This is an account of results in ChEMBL document CHEMBL2375325, “Anti-neuroinflammatory properties of synthetic cryptolepine in human neuroblastoma cells: possible involvement of NF-κB and p38 MAPK inhibition” (Eur J Med Chem, 2013).

Activity calls are given as the source filed them. The calls are words filed in the database; no cut-off is given here.

The test system of series [1] is SK-N-SH. In words: Inhibition of COX2 gene expression in IL1beta-stimulated human SK-N-SH cells at 10 to 20 uM preincubated for 30 mins prior to IL1beta-stimulation measured after 4 hrs by qPCR analysis. It is filed as functional, cell-based. A general note: In qPCR the cycle at which signal appears reflects the starting amount.
Series [2] concerns SK-N-SH. Kind of series: Antiinflammatory activity against human SK-N-SH cells assessed as inhibition of IL1beta-induced IL6 production at 2.5 to 20 uM preincubated for 30 mins prior to IL1beta-stimulation measured after 24 hrs by ELISA. It is filed as functional, cell-based. In general terms: In an ELISA, binding on a coated surface is turned into a signal by an enzyme label.

Series [3] deals with Transcription factor p65 (Homo sapiens) (UniProt Q04206). In words: Inhibition of IL1beta-induced NFkappaB p65 nuclear translocation in human SK-N-SH cells after 15 mins by ELISA. It is filed as cell-based.
Transcription factor p65 (Homo sapiens), sequence (Q04206 whole entry): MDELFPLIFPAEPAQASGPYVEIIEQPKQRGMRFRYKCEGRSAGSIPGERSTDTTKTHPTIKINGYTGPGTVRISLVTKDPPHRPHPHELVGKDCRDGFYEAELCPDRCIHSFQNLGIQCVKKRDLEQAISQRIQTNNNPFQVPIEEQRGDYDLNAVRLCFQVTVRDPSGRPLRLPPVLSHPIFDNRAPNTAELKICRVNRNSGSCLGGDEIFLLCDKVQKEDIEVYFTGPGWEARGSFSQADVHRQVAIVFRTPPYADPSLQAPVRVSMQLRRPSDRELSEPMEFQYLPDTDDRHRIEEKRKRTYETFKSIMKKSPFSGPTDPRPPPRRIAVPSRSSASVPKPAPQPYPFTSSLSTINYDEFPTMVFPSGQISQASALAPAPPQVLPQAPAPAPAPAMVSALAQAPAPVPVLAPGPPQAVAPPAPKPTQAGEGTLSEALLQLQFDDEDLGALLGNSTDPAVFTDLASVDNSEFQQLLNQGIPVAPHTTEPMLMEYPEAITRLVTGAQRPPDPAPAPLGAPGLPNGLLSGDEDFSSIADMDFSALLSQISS
Series [4] concerns SK-N-SH. In words: Inhibition of microsomal PGES-1 protein expression in IL1beta-stimulated human SK-N-SH cells at 10 to 20 uM after 24 hrs by Western blotting analysis. It is filed as functional, cell-based. On the technique in general: In western blotting, separated proteins are transferred to a membrane and probed.
Series [5] addresses T1, MAP kinase p38 (Homo sapiens) (UniProt O15264+Q15759+Q16539+P53778). Kind of series: Inhibition of p38 MAPK in human SK-N-SH cells assessed as inhibition of IL1beta-induced MAPKAPK2 phosphorylation preincubated for 30 mins prior to IL1beta-stimulation measured after 1 hr by Western blotting analysis. It is filed as cell-based.
The subject of series [6] is SK-N-SH. In words: Inhibition of COX2 protein expression in IL1beta-stimulated human SK-N-SH cells at 2.5 uM after 24 hrs by Western blotting analysis relative to IL1beta-treated control. It is filed as functional, cell-based.
The target in series [7] is T1, MAP kinase p38 (Homo sapiens). In words: Inhibition of IL1beta-induced p38 MAPK phosphorylation in human SK-N-SH cells at 10 to 20 uM preincubated for 30 mins prior to IL1beta-stimulation measured after 1 hr by Western blotting analysis. It is filed as cell-based.
Series [8] deals with SK-N-SH. In words: Cytotoxicity against human SK-N-SH cells after 24 hrs by ATP assay. It is filed as cell-based.
Series [9] deals with SK-N-SH. Kind of series: Inhibition of IL1beta-induced IkappaB phosphorylation in human SK-N-SH cells at 2.5 to 20 uM after 15 mins by ELISA. It is filed as cell-based.
For series [10], the system named is SK-N-SH. In words: Inhibition of microsomal PGES-1 gene expression in IL1beta-stimulated human SK-N-SH cells at 2.5 uM preincubated for 30 mins prior to IL1beta-stimulation measured after 4 hrs by qPCR analysis. It is filed as functional, cell-based.
Series [11] relates to SK-N-SH. In words: Inhibition of microsomal PGES-1 gene expression in IL1beta-stimulated human SK-N-SH cells at 10 to 20 uM preincubated for 30 mins prior to IL1beta-stimulation measured after 4 hrs by qPCR analysis. It is filed as functional, cell-based.
Series [12] relates to SK-N-SH. In words: Inhibition of microsomal PGES-1 gene expression in IL1beta-stimulated human SK-N-SH cells at 5 uM preincubated for 30 mins prior to IL1beta-stimulation measured after 4 hrs by qPCR analysis. It is filed as functional, cell-based.
Series [13] deals with SK-N-SH. Kind of series: Inhibition of microsomal PGES-1 protein expression in IL1beta-stimulated human SK-N-SH cells at 5 uM after 24 hrs by Western blotting analysis. It is filed as functional, cell-based.
In series [14] the test system is SK-N-SH. Kind of series: Antiinflammatory activity against human SK-N-SH cells assessed as inhibition of IL1beta-induced TNFalpha production at 2.5 to 20 uM preincubated for 30 mins prior to IL1beta-stimulation measured after 24 hrs by ELISA. It is filed as functional, cell-based.
The test system of series [15] is SK-N-SH. In words: Inhibition of microsomal PGES-1 protein expression in IL1beta-stimulated human SK-N-SH cells at 2.5 uM after 24 hrs by Western blotting analysis. It is filed as functional, cell-based.
The subject of series [16] is SK-N-SH. Kind of series: Antiinflammatory activity against human SK-N-SH cells assessed as inhibition of IL1beta-induced PGE2 production preincubated for 30 mins prior to IL1beta-stimulation measured after 24 hrs by enzyme immunoassay. It is filed as functional, cell-based.
Series [17] deals with SK-N-SH. In words: Inhibition of COX2 protein expression in IL1beta-stimulated human SK-N-SH cells at 5 to 20 uM after 24 hrs by Western blotting analysis. It is filed as functional, cell-based.

With `C[n+]1c2ccccc2cc2[n-]c3ccccc3c21.Cl` [CRYPTOLEPINE HYDROCHLORIDE], the inhibition entry in series [1], in series [4], in series [7], in series [11], in series [12] and in series [17] was “Active” each time. Further, the outcome in [2] and in [14] was Active. The inhibition entry in series [3] and in series [5] was “Dose-dependent effect” in each case. Further, the inhibition result in series [6], in series [9], in series [10], in [13] and in series [15] was “inactive” each time. For the same molecule, the Activity entry in series [8] is “Non-toxic”; in series [16] it was “Dose-dependent effect”.
